Results published in PubChem BioAssay AID2060885 (Molecular Pharmacology Branch, DTP, NCI, 2025).

Tested on: NCI-H23 complex spheroids with HUVEC/MSC, viability
Assay: Anticancer human tumor NCI-H23 cell line growth inhibition [RAS];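 also: spheroids exposed to compound for 7 days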;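 as to viability, T/C: 100% = DMSO vehicle control viability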
Conditions: for IC50: curve of first compound; for viability, T/C: stronger effect = lower value; active = viability on the fitted dose curve at most 10% of control; inactive = the rest
Procedure, shortened: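 Tumour cells grown as complex spheroids with HUVEC endothelial cells and mesenchymal stem cells, treated with RAS pathway inhibitor combinations. Each agent spans half-log steps from near clinical Cmax, or 10 microM where Cmax is unknown.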

[1] = second compound 0.00316 µM, first compound 0.000949 µM
[2] = second compound 0.00316 µM, first compound 0.003 µM
[3] = second compound 0.00316 µM, first compound 0.00949 µM
[4] = second compound 0.00316 µM, first compound 0.03 µM
[5] = second compound 0.00316 µM, first compound 0.0949 µM
[6] = second compound 0.00316 µM, first compound 0.3 µM
[7] = second compound 0.01 µM, first compound 0.000949 µM
[8] = second compound 0.01 µM, first compound 0.003 µM
[9] = second compound 0.01 µM, first compound 0.00949 µM
[10] = second compound 0.01 µM, first compound 0.03 µM
[11] = second compound 0.01 µM, first compound 0.0949 µM
[12] = second compound 0.01 µM, first compound 0.3 µM
[13] = second compound 0.0316 µM, first compound 0.000949 µM
[14] = second compound 0.0316 µM, first compound 0.003 µM
[15] = second compound 0.0316 µM, first compound 0.00949 µM
[16] = second compound 0.0316 µM, first compound 0.03 µM
[17] = second compound 0.0316 µM, first compound 0.0949 µM
[18] = second compound 0.0316 µM, first compound 0.3 µM
[19] = second compound 0.1 µM, first compound 0.000949 µM
[20] = second compound 0.1 µM, first compound 0.003 µM
[21] = second compound 0.1 µM, first compound 0.00949 µM
[22] = second compound 0.1 µM, first compound 0.03 µM
[23] = second compound 0.1 µM, first compound 0.0949 µM
[24] = second compound 0.1 µM, first compound 0.3 µM
[25] = second compound 0.316 µM, first compound 0.000949 µM
[26] = second compound 0.316 µM, first compound 0.003 µM
[27] = second compound 0.316 µM, first compound 0.00949 µM
[28] = second compound 0.316 µM, first compound 0.03 µM
[29] = second compound 0.316 µM, first compound 0.0949 µM
[30] = second compound 0.316 µM, first compound 0.3 µM
[31] = second compound 1 µM, first compound 0.000949 µM
[32] = second compound 1 µM, first compound 0.003 µM
[33] = second compound 1 µM, first compound 0.00949 µM
[34] = second compound 1 µM, first compound 0.03 µM
[35] = second compound 1 µM, first compound 0.0949 µM
[36] = second compound 1 µM, first compound 0.3 µM

CC(=O)OC12COC1CC(O)C1(C)C(=O)C(O)C3=C(C)C(OC(=O)C(O)C(NC(=O)OC(C)(C)C)c4ccccc4)CC(O)(C(OC(=O)c4ccccc4)C21)C3(C)C (stereo unspecified) + C=CC(=O)N1CCN(c2nc(OCC3CCCN3C)nc3c(F)c(-c4nc(N)cc(C)c4C(F)(F)F)c(Cl)cc23)C(C)C1
< 31.6 nM: IC50 (second compound 0.00316 µM) | IC50 (second compound 0.01 µM) | IC50 (second compound 0.0316 µM) | IC50 (second compound 0.1 µM) | IC50 (second compound 0.316 µM) | IC50 (second compound 1 µM)
inactive: viability, T/C (second compound 0.00316 µM, first compound 0.0316 µM) 12.9% | viability, T/C (second compound 0.00316 µM, first compound 0.1 µM) 17% | viability, T/C (second compound 0.00316 µM, first compound 0.316 µM) 17.9% | viability, T/C (second compound 0.00316 µM, first compound 1 µM) 16.9% | viability, T/C (second compound 0.00316 µM, first compound 3.16 µM) 25.1% | viability, T/C (second compound 0.00316 µM, first compound 10 µM) 41.9% | viability, T/C (second compound 0.01 µM, first compound 0.0316 µM) 14.2% | viability, T/C (second compound 0.01 µM, first compound 0.1 µM) 17.6% | viability, T/C (second compound 0.01 µM, first compound 0.316 µM) 13.1% | viability, T/C (second compound 0.01 µM, first compound 1 µM) 18.7% | viability, T/C (second compound 0.01 µM, first compound 3.16 µM) 19.1% | viability, T/C (second compound 0.01 µM, first compound 10 µM) 28.7% | viability, T/C (second compound 0.0316 µM, first compound 0.0316 µM) 15.5% | viability, T/C (second compound 0.0316 µM, first compound 0.1 µM) 17.1% | viability, T/C (second compound 0.0316 µM, first compound 0.316 µM) 15.6% | viability, T/C (second compound 0.0316 µM, first compound 1 µM) 15.9% | viability, T/C (second compound 0.0316 µM, first compound 3.16 µM) 23.9% | viability, T/C (second compound 0.0316 µM, first compound 10 µM) 26.2% | viability, T/C (second compound 0.1 µM, first compound 0.0316 µM) 12.4% | viability, T/C (second compound 0.1 µM, first compound 0.1 µM) 15.2% | viability, T/C (second compound 0.1 µM, first compound 0.316 µM) 11.8% | viability, T/C (second compound 0.1 µM, first compound 1 µM) 14.9% | viability, T/C (second compound 0.1 µM, first compound 3.16 µM) 22.8% | viability, T/C (second compound 0.1 µM, first compound 10 µM) 22.1% | viability, T/C (second compound 0.316 µM, first compound 0.0316 µM) 11.1% | viability, T/C (second compound 0.316 µM, first compound 0.1 µM) 13.9% | viability, T/C (second compound 0.316 µM, first compound 0.316 µM) 14.3% | viability, T/C (second compound 0.316 µM, first compound 1 µM) 16.3% | viability, T/C (second compound 0.316 µM, first compound 3.16 µM) 18.9% | viability, T/C (second compound 0.316 µM, first compound 10 µM) 26.8% | viability, T/C (second compound 1 µM, first compound 0.0316 µM) 11.8% | viability, T/C (second compound 1 µM, first compound 0.1 µM) 14.7% | viability, T/C (second compound 1 µM, first compound 0.316 µM) 14.4% | viability, T/C (second compound 1 µM, first compound 1 µM) 15.4% | viability, T/C (second compound 1 µM, first compound 3.16 µM) 21.5% | viability, T/C (second compound 1 µM, first compound 10 µM) 20.9%

CC1(C)CCC(Nc2ncc(C(F)(F)F)c(-c3c[nH]c4c(P(C)(C)=O)c(C#N)ccc34)n2)CN1 (stereo unspecified) + C=CC(=O)N1CCN(c2nc(OCC3CCCN3C)nc3c(F)c(-c4nc(N)cc(C)c4C(F)(F)F)c(Cl)cc23)C(C)C1
< 0.949 nM: IC50 (second compound 0.01 µM) | IC50 (second compound 0.0316 µM) | IC50 (second compound 0.1 µM) | IC50 (second compound 0.316 µM) | IC50 (second compound 1 µM)
inactive: viability, T/C [1] 50.9% | viability, T/C [2] 41.2% | viability, T/C [3] 37% | viability, T/C [4] 25.2% | viability, T/C [5] 26.9% | viability, T/C [6] 27.6% | viability, T/C [7] 36.5% | viability, T/C [8] 38.3% | viability, T/C [9] 24.9% | viability, T/C [10] 24% | viability, T/C [11] 22.5% | viability, T/C [12] 20% | viability, T/C [13] 33.6% | viability, T/C [14] 27.2% | viability, T/C [15] 23.2% | viability, T/C [16] 21% | viability, T/C [17] 21.2% | viability, T/C [18] 18.2% | viability, T/C [19] 29.8% | viability, T/C [20] 28.9% | viability, T/C [21] 23.1% | viability, T/C [22] 21.3% | viability, T/C [23] 19.2% | viability, T/C [24] 19.4% | viability, T/C [25] 30.1% | viability, T/C [26] 30.4% | viability, T/C [27] 24.1% | viability, T/C [28] 20.7% | viability, T/C [29] 20.6% | viability, T/C [30] 19.5% | viability, T/C [31] 29.3% | viability, T/C [32] 28.7% | viability, T/C [33] 27.5% | viability, T/C [34] 22.4% | viability, T/C [35] 23.6% | viability, T/C [36] 20.5%
1.11 nM: IC50 (second compound 0.00316 µM)

CCc1c2c(nc3ccc(O)cc13)-c1cc3c(c(=O)n1C2)COC(=O)[C@]3(O)CC + C=CC(=O)N1CCN(c2nc(OCC3CCCN3C)nc3c(F)c(-c4nc(N)cc(C)c4C(F)(F)F)c(Cl)cc23)C(C)C1
inactive: viability, T/C [1] 41.6% | viability, T/C [2] 33.6% | viability, T/C [3] 11.7% | viability, T/C [7] 40.6% | viability, T/C [8] 26% | viability, T/C [13] 33.3% | viability, T/C [14] 22.2% | viability, T/C [15] 9.5% | viability, T/C [19] 32.5% | viability, T/C [20] 19.6% | viability, T/C [25] 27.8% | viability, T/C [26] 17.5% | viability, T/C [31] 25.9% | viability, T/C [32] 21.2% | viability, T/C [33] 8.12%
< 0.949 nM: IC50 (second compound 0.00316 µM) | IC50 (second compound 0.01 µM) | IC50 (second compound 0.0316 µM) | IC50 (second compound 0.1 µM) | IC50 (second compound 0.316 µM) | IC50 (second compound 1 µM)
active: viability, T/C [4] 3.8% | viability, T/C [5] 2.71% | viability, T/C [6] 2.26% | viability, T/C [9] 8.37% | viability, T/C [10] 3.98% | viability, T/C [11] 2.14% | viability, T/C [12] 1.54% | viability, T/C [16] 4.43% | viability, T/C [17] 2.52% | viability, T/C [18] 1.84% | viability, T/C [21] 6.47% | viability, T/C [22] 3.28% | viability, T/C [23] 2.14% | viability, T/C [24] 2.49% | viability, T/C [27] 7.44% | viability, T/C [28] 3.62% | viability, T/C [29] 2.47% | viability, T/C [30] 3.05% | viability, T/C [34] 4.94% | viability, T/C [35] 2.44% | viability, T/C [36] 2.51%
